From US8153385B2, “Target protein and target gene in drug designing and screening method” (Reverse Proteomics Research Institute Co., Ltd., priority 2004, dated 2012)

Target: T1, FLJ13397 clone-derived protein (CARP) (Homo sapiens, UniProt Q9H8M7)
T1 construct: A human full-length cDNA clone was expressed as a protein with an N-terminal His tag; His tag (pDEST17 Gateway vector) (N); made in house; host or cells: Escherichia coli BL21star(DE3)pLysS
T1 sequence (Q9H8M7 1-445): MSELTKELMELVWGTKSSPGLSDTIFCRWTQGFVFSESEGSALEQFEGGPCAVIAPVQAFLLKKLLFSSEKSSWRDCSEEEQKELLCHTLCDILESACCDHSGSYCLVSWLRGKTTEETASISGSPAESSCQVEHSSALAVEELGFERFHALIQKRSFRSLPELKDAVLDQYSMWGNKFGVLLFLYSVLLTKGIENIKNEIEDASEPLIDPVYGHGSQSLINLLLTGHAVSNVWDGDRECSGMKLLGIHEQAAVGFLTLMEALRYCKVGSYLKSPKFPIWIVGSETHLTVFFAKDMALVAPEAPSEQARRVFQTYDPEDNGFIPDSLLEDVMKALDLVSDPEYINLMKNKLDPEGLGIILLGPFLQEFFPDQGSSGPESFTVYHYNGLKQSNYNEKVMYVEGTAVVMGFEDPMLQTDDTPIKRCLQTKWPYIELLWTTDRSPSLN
Test: SEC/MS (size exclusion chromatography / mass analysis) interaction analysis between FLJ13397 clone-derived protein and compounds
Type: binding
Procedure: BP-reaction was performed on human full-length cDNA clone and the cloning vector Gateway pDONR201 by the PCR cloning method using the Invitrogen Gateway system to yield an entry clone. LR-reaction was performed on this entry clone with the destination vector pDEST17 (Gateway System) and LR Clonase at 25° C. for 60 minutes to yield an expression plasmid. Escherichia coli competent cell BL21star(DE3)pLysS were transformed with this expression plasmid, a clone incorporating the expression vector was selected, and a frozen stock was prepared. The transformant was inoculated into LB medium and precultured, after which it was transferred into SB medium and cultured to induce the expression by IPTG, and the cells were stored frozen.
A human full-length cDNA clone was expressed as a protein with an N-terminal His tag. This clone was purified using BioRobot 8000 (Qiagen) or ACTA Crystal (Amersham). […] In the purification with ACTA Crystal, affinity purification using a HisTrap HP column was followed by gel filtration purification using the Gel Filtration Column HiLoad 16/60 or a 10/30 Superdex 75 prep grade column. The purified fraction was used for interaction analysis after being subjected to SDS-PAGE to verify the estimated molecular weight and purity.
To analyze the interactions between commonly used drugs and proteins expressed from human full-length cDNA clones while keeping both the proteins and the compounds in non-modified, non-immobilized state, size exclusion chromatography (SEC) and mass analysis were used in combination (FIGS. 1 and 2). The specific procedures are shown below.
The compound-protein mixture prepared in step 1 was subjected to chromatography using an SEC column, the compound and the protein were separated by SEC, and the bound compound or compound that interacted with the protein in the protein fraction was analyzed using a mass analyzer.
Protein concentrations were measured using BCA Protein Assay (PIERCE), in consideration of the purity calculated by SDS-PAGE.
Mass analysis was performed using LCQ DECA XP (Thermoelectron) or Q-TOFmicro (Micromass), equipped with an ESI probe. The LC pump used was Agilent 1100 (Yokogawa Analytical Systems), and the autosampler used was HTC-PAL (CTC Analytics) equipped with a cooling stacker.
In the SEC method using a 384-well spin column, Unifilter 100 (Whatman), packed with 10 μL (dry volume) of Bio-Gel P6 (BIO-RAD) and swollen with milliQ water, was used as the SEC column. […] The SEC spin column was mounted on an acetonitrile-aliquoted 384-well U-bottom plate and centrifuged; the SEC spin column filtrate, which is a protein fraction, was retrieved in 50% acetonitrile. The protein precipitate produced by the acetonitrile was removed via centrifugation and filtration for protein removal; the resulting filtrate was concentrated by centrifugation and re-dissolved in 10 μL of 50% methanol to obtain a mass analysis sample. The mobile phase supplied to the mass analyzer was 0.1% formic acid/50% methanol solution in the positive ion mode, and 0.1% ammonia/50% methanol solution in the negative ion mode; these mobile phases were used at a flow rate of 40 μL/min. 2-μL of mass analysis samples were injected using an autosampler at 2-Minute intervals; the mass spectral intensity of the compound was measured to obtain the spectral intensity of the pharmaceutical compound contained in the SEC spin column filtrate (protein fraction eluted from SEC).

[1] = compound 1 μM, protein 0 μM (protein-free reference)
[2] = compound 1 μM, protein 23.75 μM
[3] = compound 10 μM, protein 0 μM (protein-free reference)
[4] = compound 10 μM, protein 23.75 μM
[5] = compound 10 μM, protein 47.5 μM
[6] = compound 100 μM, protein 0 μM (protein-free reference)
[7] = compound 100 μM, protein 23.75 μM
[8] = compound 100 μM, protein 47.5 μM
[9] = compound 250 μM, protein 0 μM (protein-free reference)
[10] = compound 250 μM, protein 23.75 μM
[11] = compound 250 μM, protein 47.5 μM

CCCOc1ccc2nc(NC(=O)OC)[nH]c2c1 [Oxibendazole]
spectrum intensity of the extracted mass range (compound in SEC spin column filtrate) [1]: 570160 | spectrum intensity of the extracted mass range (compound in SEC spin column filtrate) [2]: 595458 | spectrum intensity of the extracted mass range (compound in SEC spin column filtrate) (compound 1 μM, protein 47.5 μM): 529117 | spectrum intensity of the extracted mass range (compound in SEC spin column filtrate) [3]: 525337 | spectrum intensity of the extracted mass range (compound in SEC spin column filtrate) [4]: 3533115 | spectrum intensity of the extracted mass range (compound in SEC spin column filtrate) [5]: 9671167 | spectrum intensity of the extracted mass range (compound in SEC spin column filtrate) [6]: 1292692 | spectrum intensity of the extracted mass range (compound in SEC spin column filtrate) [7]: 7303166 | spectrum intensity of the extracted mass range (compound in SEC spin column filtrate) [8]: 8921904 | spectrum intensity of the extracted mass range (compound in SEC spin column filtrate) [9]: 2449247 | spectrum intensity of the extracted mass range (compound in SEC spin column filtrate) [10]: 20401030 | spectrum intensity of the extracted mass range (compound in SEC spin column filtrate) [11]: 13559202

CC(C)(C)c1ccc(C(O)CCCN2CCC(C(O)(c3ccccc3)c3ccccc3)CC2)cc1 (stereo not shown) [Terfenadine]
spectrum intensity of the extracted mass range (compound in SEC spin column filtrate) [1]: 1817431 | spectrum intensity of the extracted mass range (compound in SEC spin column filtrate) [2]: 1889743 | spectrum intensity of the extracted mass range (compound in SEC spin column filtrate) (compound 1 μM, protein 47.5 μM): 1281933 | spectrum intensity of the extracted mass range (compound in SEC spin column filtrate) [3]: 2641416 | spectrum intensity of the extracted mass range (compound in SEC spin column filtrate) [4]: 9434699 | spectrum intensity of the extracted mass range (compound in SEC spin column filtrate) [5]: 8393491 | spectrum intensity of the extracted mass range (compound in SEC spin column filtrate) [6]: 241452949 | spectrum intensity of the extracted mass range (compound in SEC spin column filtrate) [7]: 175843248 | spectrum intensity of the extracted mass range (compound in SEC spin column filtrate) [8]: 549040113 | spectrum intensity of the extracted mass range (compound in SEC spin column filtrate) [9]: 644365611 | spectrum intensity of the extracted mass range (compound in SEC spin column filtrate) [10]: 1389061661 | spectrum intensity of the extracted mass range (compound in SEC spin column filtrate) [11]: 1700398168 | interaction with the FLJ13397-expressed protein (judgement) (judged from increase of spectrum intensity with doses of compound and protein): concentration-dependent interaction

c1ccc2[nH]c(-c3cscn3)nc2c1 [Thiabendazole]
spectrum intensity of the extracted mass range (compound in SEC spin column filtrate) [1]: 61442947 | spectrum intensity of the extracted mass range (compound in SEC spin column filtrate) [2]: 42216896 | spectrum intensity of the extracted mass range (compound in SEC spin column filtrate) (compound 1 μM, protein 47.5 μM): 47595391 | spectrum intensity of the extracted mass range (compound in SEC spin column filtrate) [3]: 21903023 | spectrum intensity of the extracted mass range (compound in SEC spin column filtrate) [4]: 45510612 | spectrum intensity of the extracted mass range (compound in SEC spin column filtrate) [5]: 41434122 | spectrum intensity of the extracted mass range (compound in SEC spin column filtrate) [6]: 60344905 | spectrum intensity of the extracted mass range (compound in SEC spin column filtrate) [7]: 64811390 | spectrum intensity of the extracted mass range (compound in SEC spin column filtrate) [8]: 63585895 | spectrum intensity of the extracted mass range (compound in SEC spin column filtrate) [9]: 40530147 | spectrum intensity of the extracted mass range (compound in SEC spin column filtrate) [10]: 93902905 | spectrum intensity of the extracted mass range (compound in SEC spin column filtrate) [11]: 125101370

OC(c1ccccc1)(c1ccccc1)C1CCNCC1 [α,α-Diphenyl-4-piperidinomethanol]
spectrum intensity of the extracted mass range (compound in SEC spin column filtrate) [1]: 1354498 | spectrum intensity of the extracted mass range (compound in SEC spin column filtrate) [2]: 1217276 | spectrum intensity of the extracted mass range (compound in SEC spin column filtrate) (compound 1 μM, protein 47.5 μM): 1961004 | spectrum intensity of the extracted mass range (compound in SEC spin column filtrate) [3]: 14109120 | spectrum intensity of the extracted mass range (compound in SEC spin column filtrate) [4]: 12131847 | spectrum intensity of the extracted mass range (compound in SEC spin column filtrate) [5]: 15743409 | spectrum intensity of the extracted mass range (compound in SEC spin column filtrate) [6]: 106849236 | spectrum intensity of the extracted mass range (compound in SEC spin column filtrate) [7]: 219345185 | spectrum intensity of the extracted mass range (compound in SEC spin column filtrate) [8]: 287013305 | spectrum intensity of the extracted mass range (compound in SEC spin column filtrate) [9]: 400374746 | spectrum intensity of the extracted mass range (compound in SEC spin column filtrate) [10]: 620399620 | spectrum intensity of the extracted mass range (compound in SEC spin column filtrate) [11]: 1037919
